Laboratory results from US10799597B2, “Subcutaneous administration of antibody-drug conjugates for cancer therapy” (Immunomedics, Inc., priority 2017, dated 2020).

Assays:
[1] = system: metastatic colonic cancer; assay: IMMU-130 in a patient with advanced colon cancer (Example 13); type: in vivo, human
Source text: The patient is a person with a history of stage-IV metastatic colonic cancer, first diagnosed in 2008 and given a colectomy and partial hepatectomy for the primary and metastatic colonic cancers, respectively. […] In 2009, they received radiofrequency ablation therapy to their liver metastasis while under chemo-immunotherapy, and in late 2010 they underwent a wedge resection of their lung metastases, which was repeated a few months later, in early 2011. Despite having chemo-immunotherapy in 2011, new lung metastases appeared at the end of 2011, and in 2012, both lung and liver metastases were visualized. Their baseline plasma carcinoembryonic antigen (CEA) titer was 12.5 ng/mL just before undergoing the antibody-drug therapy with IMMU-130. The index lesions chosen by the radiologist for measuring tumor size change by computed tomography were the mid-lobe of the right lung and the liver metastases, both totaling 91 mm as the sum of their longest diameters at the baseline prior to IMMU-130 (anti-CEACAM5-SN-38) therapy.
This patient received doses of 10 mg/kg of IMMU-130 by slow IV infusion every other week for a total of 17 treatment doses. The patient tolerated the therapy well, having only a grade 1 nausea, diarrhea and fatigue after the first treatment, which occurred after treatments 4 and 5, but not therafter, because they received medication for these side-effects. After treatment 3, they did show alopecia (grade 2), which was present during the subsequent therapy. The nausea, diarrhea, and occasional vomiting lasted only 2-3 days, and their fatigue after the first infusion lasted 2 weeks. Otherwise, the patient tolerated the therapy well.

[2] = system: gastric adenocarcinoma metastases; assay: I.V. and S.C. IMMU-130 in a gastric cancer patient (Example 15); type: in vivo, human
Source text: Their fourth infusion is postponed by one week, and then the weekly infusions are reinstituted, with no evidence of diarrhea or neutropenia for the next 4 injection. The patient then undergoes a CT study to measure their metastatic tumor sizes and to view the original area of gastric resection. The radiologist measures, according to RECIST criteria, a decrease of the sum of the metastatic lesions, compared to baseline prior to IMMU-130 therapy, of 23%. […] The patient's general condition improves and they resume their usual activities while continuing to receive a maintenance therapy of 3 mg/kg administered twice-weekly subcutaneously of IMMU-130 every six weeks for another 4 courses of therapy. At the last measurement of blood CEA, the value is 4.8 ng/mL, which is within the normal range for a smoker, which is the case for this patient.

[3] = Tolerability study of IMMU-130 in rabbits; type: in vivo, white New Zealand rabbits; conditions: given as two doses
Description: (§1) Experiments were conducted in female athymic nude mice, 4 weeks or older, bearing s.c. LS174T human colon carcinoma xenografts of (˜0.2 cm^3 size), or 2 weeks after lung metastases were generated by i.v. injection of GW-39 human colon carcinoma cells. Untreated controls, including a non-targeting ADC, were included. […] Tolerability studies were conducted in white New Zealand rabbits.

[4] = Drug release from the linker in IMMU-130
[5] = system: GW-39 human colon carcinoma lung metastases; assay: IMMU-130 therapy of GW-39 lung metastases in nude mice; type: in vivo, athymic nude mice
Description: as §1

metastatic colon cancer [6] = assay: Subcutaneous IMMU-130 in a patient with metastatic colon cancer (Example 11); type: in vivo, human; conditions: s.c. 4 mg/kg 3 times weekly for 2 weeks, 3 cycles; CT 8 weeks from treatment begin
Description: A person with metastatic colon cancer (3-5 cm diameters) to their left and right liver lobes, as well as a 5 cm metastasis to their right lung, and an elevated blood CEA value of 130 ng/mL, is treated with the anti-CEACAM-5 ADC IMMU-130 (hMN-14-CL2A-SN-38) administered subcutaneously at a dosage of 4 mg/kg, given 3 times weekly for 2 weeks, followed by rest, with 3 cycles of drug administration. […] Repeated courses of therapy continue as their neutropenia normalizes.

metastatic colon cancer [7] = assay: S.C. hMN-14-SN-38 ADC in advanced metastatic colon cancer (Example 16); type: in vivo, human; conditions: 2 mg/kg S.C. twice-weekly every other week, 3-month CT evaluation
Description: The hMN-14-SN-38 ADC is administered at a dosage of 2 mg/kg S.C., twice-weekly, which is repeated every other week for 4 months.

[8] = system: LS174T human colon carcinoma xenografts; assay: IMMU-130 therapy of s.c. LS174T xenografts in nude mice; type: in vivo, athymic nude mice; conditions: s.c. model
Description: as §1

Which “grade of nausea, diarrhea and fatigue” value ([1]; 10 mg/kg IV) does the source give for “IMMU-130: CEACAM5-targeted ADC, labetuzumab-SN-38, substituted at 7-8 moles/mole of IgG” here?
Its value is 1.

And the “change in index lesions from baseline (CT)” value ([1]; 10 mg/kg IV every other week, after 4 treatments)?
The value was 28.6%.

What about the “reduction in index lesions from baseline (CT)” value ([1]; after 8 treatments) of the same substance?
Its value is 40.6%.

And the “anti-labetuzumab antibody in blood” value ([1]; after 16 doses)?
The value was “none was detected”.

And the “plasma CEA titer” value ([1]; after the third therapy dose, baseline 12.6 ng/mL)?
Its value is 2.1 ng/mL.

And the grade of alopecia ([1]; after treatment 3)?
The grade of alopecia was 2.

What about the “index lesions less than baseline (CT)” value ([1]; another 2 months later) of the same substance?
Its value is 31.9%.

What about the “decrease of the sum of the metastatic lesions (RECIST)” value ([2]; 8 mg/kg I.V. weekly, first CT study) of the same substance?
Its value is 23%.

And the grade of diarrhea ([2]; after 3 weeks of 8 mg/kg I.V.)?
Its grade of diarrhea is 1.

And the grade of neutropenia ([2]; after 3 weeks of 8 mg/kg I.V.)?
Its grade of neutropenia is 2.

And the “decrease of the sum of all metastatic lesions” value ([2]; after a total of 13 infusions of 8.0 mg/kg I.V.)?
Its value is 41%.

What about the CEA titer ([2]; at first CT study, baseline 14.5 ng/mL) of the same substance?
The CEA titer was 7.2 ng/mL.

And the “blood CEA” value ([2]; last measurement, s.c. maintenance 3 mg/kg twice-weekly)?
Its value is 4.8 ng/mL.

What about the “NOAEL, human equivalent dose” value [3] of the same substance?
The value was 40 to 60 mg/kg.

And the “time for liberating 50% of drug” value [4]?
Its value is about 20 h.

What about the “effect of pre-dosing with labetuzumab on median survival” value ([5]; pre-dose up to twice the ADC dose, n=10) of the same substance?
Its value is “did not affect median survival”.

And the “median survival vs. untreated mice” value ([5]; total 50 mg/kg ADC, 2 cycles of 21 days, twice-weekly×2 weeks and once weekly×2 weeks schedules)?
The value was “doubled median survival”.

And the “reduction of the total mean diameters of the 3 target lesions” value (metastatic colon cancer [6])?
Its value is 25%.

What about the “response by RECIST criteria” value (metastatic colon cancer [7]) of the same substance?
The value was “partial response”.

And the “efficacy vs. the conjugate with an ultrastable linker” value ([8]; n=5)?
Its value is “superior”.

And the “efficacy of combination with bevacizumab” value ([8]; n=8-10, P<0.031)?
The value was “improved efficacy”.

And the “efficacy vs. an MTD of 5 FU/leucovorin chemotherapy” value ([8]; n=10, P<0.0001)?
The value was “better”.
